What was measured:
CYP2D6 = conditions: sertraline, fluvoxamine: ref 17; bupropion in vitro ref 12, in vivo ref 13; cited from earlier work
[1] = tested on: rat pooled liver microsomes
CYP1A2 = conditions: cited from earlier work
CYP2C9 = conditions: cited from earlier work
[2] = cited from earlier work

Compound | CYP2D6 inhibition (CYP2D6) | decrease of carvedilol metabolisation rate [1] | CYP1A2 inhibition (CYP1A2) | CYP2C9 inhibition (CYP2C9) | inhibitory potency compared with citalopram ([1]; based on metabolization rate and AUC0–30, citalopram data ref 20) | beta-blocking potency relative to carvedilol [2]
CC(NC(C)(C)C)C(=O)c1cccc(Cl)c1 (centres unmarked) [Bupropion, bupropion] | inhibits | – | – | – | – | –
CN[C@H]1CC[C@@H](c2ccc(Cl)c(Cl)c2)c2ccccc21 [Sertraline, sertraline] | moderate inhibitor | 63.63% | weak inhibitor | weak inhibitor | – | –
COCCCC/C(=N\OCCN)c1ccc(C(F)(F)F)cc1 [Fluvoxamine, fluvoxamine] | weak inhibitor | 25.19% | strong inhibitor | moderate inhibitor | stronger inhibitors than citalopram | –
COc1cc(O)ccc1OCCNCC(O)COc1cccc2[nH]c3ccccc3c12 (centres unmarked) [4′-hydroxyphenyl carvedilol] | – | – | – | – | – | approximately 13 times
